According to ChEMBL document CHEMBL6109037, “Understanding the mechanisms of antimicrobial resistance and potential therapeutic approaches against the Gram-negative pathogen Acinetobacter baumannii” (RSC Med Chem, 2024):
Values after ≈ are worked out from the molar mass of the structure shown.

How the values were obtained:
[1] = tested on: Acinetobacter baumannii; assay: Antibacterial activity against Acinetobacter baumannii AB-5075 assessed as reduction in bacterial growth incubated for 18 to 24 hrs by broth micro-dilution assay; assay type: functional, organism-based
[2] = tested on: Acinetobacter baumannii; assay: Antibacterial activity against multidrug-resistant Acinetobacter baumannii ATCC 17978 assessed as reduction in bacterial growth incubated for 24 hrs by micro-broth dilution method; assay type: functional
[3] = tested on: Acinetobacter baumannii; assay: Antibacterial activity against Acinetobacter baumannii ATCC 17978 assessed as reduction in bacterial growth incubated for 24 hrs by micro-broth dilution method; assay type: functional
[4] = tested on: Acinetobacter baumannii; assay: Antibacterial activity against Acinetobacter baumannii ATCC 17978 assessed as bacterial eradication; assay type: functional
[5] = tested on: Acinetobacter baumannii; assay: Antibacterial activity against multidrug-resistant Acinetobacter baumannii assessed as inhibition of bacterial growth incubated for 24 hrs by broth dilution assay; assay type: functional
[6] = tested on: Staphylococcus aureus; assay: Antibacterial activity against Staphylococcus aureus; assay type: functional
[7] = tested on: Escherichia coli; assay: Antibacterial activity against Escherichia coli; assay type: functional
[8] = tested on: Acinetobacter baumannii; assay: Antibacterial activity against Acinetobacter baumannii; assay type: functional
[9] = tested on: Acinetobacter baumannii; assay: Synergistic antibacterial activity against Acinetobacter baumannii clinical isolates assessed as inhibition of bacterial growth incubated for 18 to 24 hrs by Checkerboard assay relative to control; assay type: functional; design: scale not given: the % may be the effect or the level left; conditions: time 18-24 hrs
[10] = tested on: Acinetobacter baumannii; assay: Antibacterial activity against Acinetobacter baumannii BAA-1605 assessed as reduction in microbial growth incubated for 24 hrs by broth micro-dilution method; assay type: functional
[11] = tested on: Acinetobacter baumannii; assay: Antibacterial activity against Acinetobacter baumannii ATCC 17978 assessed as reduction in bacterial growth incubated for 24 hrs by broth dilution assay; assay type: functional
[12] = tested on: Acinetobacter baumannii; assay: Bactericidal activity against Acinetobacter baumannii; assay type: functional
[13] = tested on: Acinetobacter baumannii; assay: Synergistic antibacterial activity against Acinetobacter baumannii assessed as inhibition of bacterial growth incubated for 18 to 24 hrs by Checkerboard assay relative to control; assay type: functional; design: scale not given: the % may be the effect or the level left; conditions: time 18-24 hrs
[14] = tested on: Acinetobacter baumannii; assay: Antibacterial activity against Acinetobacter baumannii ATCC 17978 assessed as reduction in microbial growth incubated for 24 hrs Mueller-Hintorn broth dilution method; assay type: functional, organism-based; conditions: ATCC 17978, 24 h
[15] = tested on: Klebsiella pneumoniae; assay: Antibacterial activity against Klebsiella pneumoniae; assay type: functional
[16] = tested on: Acinetobacter baumannii; assay: Antibacterial activity against Acinetobacter baumannii ATCC 17978 assessed as inhibition of bacterial growth incubated for 18 to 20 hrs by two fold serial dilution assay; assay type: functional; conditions: time 18-20 hrs
[17] = molecular target: DNA gyrase (Escherichia coli, UniProt P0AES4+P0AES6); assay: Inhibition of Escherichia coli DNA gyrase; assay type: protein-complex assay
[18] = tested on: Acinetobacter baumannii; assay: Antibacterial activity against Acinetobacter baumannii ATCC 17978 assessed as reduction in microbial growth; assay type: functional
[19] = tested on: Staphylococcus aureus; assay: Antibacterial activity against Staphylococcus aureus assessed as reduction in microbial growth; assay type: functional
[20] = tested on: Acinetobacter baumannii; assay: Antibacterial activity against Acinetobacter baumannii assessed as zone of inhibition; assay type: functional

CN(C)[C@@H]1C(O)=C(C(N)=O)C(=O)[C@@]2(O)C(O)=C3C(=O)c4c(O)cccc4[C@@](C)(O)[C@H]3C[C@@H]12 [TETRACYCLINE]
IC50 [1]: 0.04 µM

CC(CN1c2ccccc2Sc2ccccc21)N(C)C (configuration not stated) [PROMETHAZINE]
MIC [2]: 100 mg/L (≈ 352 µM)
MIC [3]: 100 mg/L (≈ 352 µM)
MBEC [4]: 0.3 g/L

THIMEROSAL
MIC [5]: 1 mg/L

Cc1cc(-n2sc(Cl)c(C)c2=O)ccc1Cl
MIC [5]: 2 mg/L (≈ 7.29 µM)

Cc1cc(=O)n(C)c2c3c4c(cc12)c(C)cc(=O)n4CCO3
MIC [6]: 0.06 mg/L (≈ 0.202 µM)
MIC [7]: > 32 mg/L
MIC [8]: > 32 mg/L

NCC[C@H](O)C(=O)N[C@@H]1C[C@H](N)[C@@H](O[C@H]2O[C@H](CN)[C@@H](O)[C@H](O)[C@H]2O)[C@H](O)[C@H]1O[C@H]1O[C@H](CO)[C@@H](O)[C@H](N)[C@H]1O [AMIKACIN]
Activity [9]: 46.2%

CO[C@@]12[C@H](COC(N)=O)C3=C(C(=O)C(C)=C(N)C3=O)N1C[C@@H]1N[C@@H]12 [MITOMYCIN]
MIC [10]: ≤ 8 mg/L

Cc1c(N2C[C@H](C)N[C@@H](C)C2)c(F)cn2c(=O)c(C(=O)O)cc(C3CC3)c12
MIC [11]: 0.31 µM (≈ 0.116 µg/mL)

COCCCNc1cc2nc(NC(=O)c3[nH]c(C)c(Cl)c3Cl)sc2cc1C(=O)O
MIC [8]: 4 mg/L (≈ 8.75 µM)

C[C@@H](O)[C@H]1C(=O)N2C(C(=O)O)=C(SCCNC=N)C[C@H]12 [IMIPENEM ANHYDROUS]
MIC [8]: > 8 mg/L

O=c1[nH]cc(F)c(=O)[nH]1 [FLUOROURACIL]
IC50 [1]: 1.8 µM

H-RWKIFKKIPKFLHSAKKW-NH2
MIC [12]: 4 mg/L

Cc1c(Cl)sn(-c2ccc(Cl)cc2)c1=O
MIC [5]: 0.25 mg/L (≈ 0.961 µM)

CC1(C)[C@H](C(=O)O)N2C(=O)C[C@H]2S1(=O)=O [SULBACTAM]
Activity [13]: ~70%

O=C1NC2(CCC3(CC2)OCCO3)NN1c1ccc(Cl)cc1
IC50 [14]: 10.8 µM

Cc1c(CN(C)C(=O)/C=C/c2cnc3c(c2)CC(N)C(=O)N3)oc2ccccc12 (configuration not stated)
MIC [7]: 4 mg/L (≈ 10.2 µM)
MIC [15]: 4 mg/L (≈ 10.2 µM)
MIC [8]: 4 mg/L (≈ 10.2 µM)

CNCC1=CCCN(c2c(F)cn3c(=O)c(C(=O)O)cc(C4CC4)c3c2C)C1
MIC [11]: 0.16 µM (≈ 0.0617 µg/mL)

CC[C@H]1OC(=O)[C@H](C)[C@@H](O[C@H]2C[C@@](C)(OC)[C@@H](O)[C@H](C)O2)[C@H](C)[C@@H](O[C@@H]2O[C@H](C)C[C@H](N(C)C)[C@H]2O)[C@](C)(O)C[C@@H](C)CN(C)[C@H](C)[C@@H](O)[C@]1(C)O [AZITHROMYCIN]
IC50 [1]: 1.1 µM

O=C(O)c1ccc(-n2cc(/C=N/Nc3ccc(F)cc3)c(-c3ccccc3)n2)cc1
MIC [8]: 8 mg/L (≈ 20 µM)

C[C@@H](O)[C@H]1C(=O)N2C(C(=O)O)=C(S[C@@H]3CN[C@H](C(=O)N(C)C)C3)[C@H](C)[C@H]12 [MEROPENEM]
MIC [8]: > 8 mg/L

Brc1ccc2[nH]c(-c3ccncc3)cc2c1
MIC [16]: < 2 mg/L

CN(C)CCCN1c2ccccc2Sc2ccc(Cl)cc21 [CHLORPROMAZINE]
MIC [2]: 100 mg/L (≈ 314 µM)
MIC [3]: 100 mg/L (≈ 314 µM)
MBEC [4]: 0.3 g/L

Cc1c(N2C[C@H](N)C3(CC3)C2)c(F)cn2c(=O)c(C(=O)O)cc(C3CC3)c12
MIC [16]: 0.19 mg/L (≈ 0.512 µM)

O=C(O)c1ccc(-c2nn(-c3ccc(C(=O)O)cc3)cc2/C=N/Nc2ccc(Cl)cc2)cc1
MIC [8]: 0.79 mg/L (≈ 1.71 µM)

O=[N+]([O-])c1ccc(O)c(/C=N/Nc2ccccn2)c1
MIC [8]: 25 mg/L (≈ 96.8 µM)

Cc1[nH]c(C(=O)Nc2nc3cc(NCc4ccccc4)c(C(=O)O)cc3s2)c(Cl)c1Cl
MIC [8]: 8 mg/L (≈ 16.8 µM)
IC50 [17]: < 0.071 µM

O=C(O)c1ccc(-c2nn(-c3ccc(C(=O)O)cc3)cc2/C=N/Nc2cccc(F)c2)cc1
MIC [8]: 1.56 mg/L (≈ 3.51 µM)

NNC(=O)CSc1ccc([N+](=O)[O-])cc1Cl
IC50 [14]: 11.7 µM

CNc1nc(NCc2ccccc2)nc2ccc(C)cc12
MIC [18]: 1 µM

CN1CCN(CCCN2c3ccccc3Sc3ccc(C(F)(F)F)cc32)CC1 [TRIFLUOPERAZINE]
MIC [2]: 100 mg/L (≈ 245 µM)
MIC [3]: 100 mg/L (≈ 245 µM)
MBEC [4]: 0.3 g/L

O=C(O)c1ccc(-n2cc(/C=N/Nc3ccc(Cl)cc3)c(-c3ccccc3)n2)cc1
MIC [8]: 4 mg/L (≈ 9.6 µM)

CN(C)c1cc(NC(=O)CNC(C)(C)C)c(O)c2c1C[C@H]1C[C@H]3[C@H](N(C)C)C(O)=C(C(N)=O)C(=O)[C@@]3(O)C(O)=C1C2=O [TIGECYCLINE]
IC50 [1]: 0.15 µM
MIC [8]: 0.5 mg/L (≈ 0.854 µM)

Cn1cnc2c3c(Cl)c4ccccc4nc3ccc21
MBC [19]: 2 mg/L

O=c1[nH]c(=O)n(C2OC(CO)c3ccccc32)cc1F (configuration not stated)
IC50 [14]: < 2 µM

Cc1cc(=O)n(C)c2c3c4c(cc12)c(C)cc(=O)n4C(CN)CO3 (configuration not stated)
MIC [6]: 0.03 mg/L (≈ 0.0922 µM)
MIC [7]: 0.5 mg/L (≈ 1.54 µM)
MIC [8]: 2 mg/L (≈ 6.15 µM)

Cc1c(N2C[C@@H](N)[C@@H](C)C2)c(F)cn2c(=O)c(C(=O)O)cc(C3CC3)c12
MIC [16]: 0.09 mg/L (≈ 0.25 µM)

CC(C)(C)n1cc(C(=O)O)c(=O)c2cc(F)c(Cl)nc21
IC50 [14]: < 2 µM

O=C(O)c1ccc(-n2cc(/C=N/Nc3ccccc3)c(-c3ccccc3)n2)cc1
inhibition zone (IZ) [20]: 28 mm

Cc1c(CN(C)C(=O)/C=C/c2cnc3c(c2)CCC(=O)N3)oc2ccccc12 [AFN-1252]
MIC [7]: > 32 mg/L

Oc1cccc(/C=N/Nc2ccccn2)c1O
MIC [8]: 25 mg/L (≈ 109 µM)

CSc1ccc2c(c1)N(CCC1CCCCN1C)c1ccccc1S2 (configuration not stated) [THIORIDAZINE]
MIC [2]: 100 mg/L (≈ 270 µM)
MIC [3]: 100 mg/L (≈ 270 µM)
MBEC [4]: 0.3 g/L
